Assay results: PubChem BioAssay (NCI)
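Interpolation was linear, between the two tested concentrations surrounding the appropriate level; five concentrations were tested over 48 hours in 96-well plates. TGI marks complete inhibition of growth.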

Legend:
Test in all cases: NCI anticancer screen, dose series, 48 h
786-0 renal = tested on: 786-0 renal
HT29 colon = tested on: HT29 colon
K-562 leukemia = tested on: K-562 leukemia
LOX IMVI melanoma = tested on: LOX IMVI melanoma
MCF7 breast = tested on: MCF7 breast
MDA-MB-435 = tested on: MDA-MB-435
SF-268 CNS = tested on: SF-268 CNS
SNB-75 CNS = tested on: SNB-75 CNS
T-47D breast = tested on: T-47D breast
UACC-62 melanoma = tested on: UACC-62 melanoma
UO-31 renal = tested on: UO-31 renal
NCI-H460 lung = tested on: NCI-H460 lung
SNB-19 CNS = tested on: SNB-19 CNS
NCI-H522 lung = tested on: NCI-H522 lung
SR leukemia = tested on: SR leukemia
MALME-3M melanoma = tested on: MALME-3M melanoma

In the case of `CC1CC/C(=C\c2ccc(Cl)cc2)C(=O)/C1=C\c1ccc(Cl)cc1` (stereo not drawn), the TGI (786-0 renal) is reported as over 100 µM, the TGI (HT29 colon) is reported as over 100 µM and the TGI (K-562 leukemia) is reported as over 100 µM. The TGI (LOX IMVI melanoma) was over 100 µM, the TGI (MCF7 breast) was over 100 µM and the TGI (MDA-MB-435) was over 100 µM. For the same compound, the TGI (SF-268 CNS) was over 100 µM, the TGI (SNB-75 CNS) was over 100 µM and the TGI (T-47D breast) was over 100 µM. It also gave a TGI (UACC-62 melanoma) of 57.3 µM and a TGI (UO-31 renal) of over 100 µM.
`COc1ccccc1-c1n[nH]c(-c2ccccc2O)n1` gave a TGI (786-0 renal) of over 100 µM, a TGI (HT29 colon) of over 100 µM and a TGI (K-562 leukemia) of over 100 µM. It also gave a TGI (LOX IMVI melanoma) of over 100 µM, a TGI (MCF7 breast) of over 100 µM and a TGI (MDA-MB-435) of over 100 µM. The TGI (NCI-H460 lung) was over 100 µM, the TGI (SF-268 CNS) was over 100 µM and the TGI (SNB-19 CNS) was over 100 µM. It also gave a TGI (SNB-75 CNS) of over 100 µM, a TGI (T-47D breast) of over 100 µM and a TGI (UACC-62 melanoma) of over 100 µM. For the same compound, the TGI (UO-31 renal) was over 100 µM.
Work on `CN1NC2=NCCN=C3NN(C)C(=NCCN=C1S2)S3` yielded a TGI (786-0 renal) of over 100 µM, a TGI (HT29 colon) of over 100 µM and a TGI (K-562 leukemia) of over 100 µM. The TGI (LOX IMVI melanoma) was over 100 µM, the TGI (NCI-H460 lung) was over 100 µM and the TGI (NCI-H522 lung) was over 100 µM. It also gave a TGI (SF-268 CNS) of over 100 µM, a TGI (SNB-19 CNS) of over 100 µM and a TGI (SNB-75 CNS) of over 100 µM. It also gave a TGI (SR leukemia) of over 100 µM and a TGI (UACC-62 melanoma) of over 100 µM.
In the case of `CCOC(=O)C12C3CCC1C2C(=O)C3` (stereo not drawn), the TGI (786-0 renal) is reported as over 100 µM, the TGI (HT29 colon) is reported as over 100 µM and the TGI (K-562 leukemia) is reported as over 100 µM. For the same compound, the TGI (LOX IMVI melanoma) was over 100 µM, the TGI (MALME-3M melanoma) was over 100 µM and the TGI (MCF7 breast) was over 100 µM. The TGI (MDA-MB-435) was over 100 µM, the TGI (NCI-H460 lung) was over 100 µM and the TGI (NCI-H522 lung) was over 100 µM. For the same compound, the TGI (SF-268 CNS) was over 100 µM, the TGI (SNB-19 CNS) was over 100 µM and the TGI (SNB-75 CNS) was over 100 µM. It also gave a TGI (SR leukemia) of over 100 µM, a TGI (UACC-62 melanoma) of over 100 µM and a TGI (UO-31 renal) of over 100 µM.
For `O=[N+]([O-])/C(C(Cl)=C(Cl)Cl)=C(\Nc1cccc2cccnc12)Sc1ccccc1`, the TGI (786-0 renal) was 49.7 µM, the TGI (HT29 colon) was 73.6 µM and the TGI (K-562 leukemia) was 84.5 µM. It also gave a TGI (MALME-3M melanoma) of 64.9 µM, a TGI (MCF7 breast) of over 100 µM and a TGI (MDA-MB-435) of 42.7 µM. The TGI (NCI-H460 lung) was over 100 µM, the TGI (SF-268 CNS) was 42 µM and the TGI (SNB-19 CNS) was over 100 µM. The TGI (SNB-75 CNS) was 72.2 µM, the TGI (T-47D breast) was 38.4 µM and the TGI (UACC-62 melanoma) was 88.4 µM. The TGI (UO-31 renal) was 49.7 µM.
`CC(C)(C)c1ccc(Oc2ccc(C#N)c(C#N)c2)c(C(C)(C)C)c1` gave a TGI (786-0 renal) of over 100 µM, a TGI (HT29 colon) of over 100 µM and a TGI (K-562 leukemia) of over 64.9 µM. The TGI (LOX IMVI melanoma) was over 54.6 µM, the TGI (MALME-3M melanoma) was over 100 µM and the TGI (NCI-H460 lung) was over 71.1 µM. The TGI (NCI-H522 lung) was 60.6 µM, the TGI (SF-268 CNS) was over 100 µM and the TGI (SNB-19 CNS) was over 100 µM. The TGI (SNB-75 CNS) was over 100 µM, the TGI (SR leukemia) was 40.3 µM and the TGI (UACC-62 melanoma) was over 100 µM. The TGI (UO-31 renal) was over 77.7 µM.
In the case of `Cc1ccc(-n2nnc3c(NNc4ccccc4)n[nH]c(=O)c32)cc1`, the TGI (786-0 renal) is reported as over 100 µM, the TGI (HT29 colon) is reported as over 100 µM and the TGI (K-562 leukemia) is reported as over 100 µM. The TGI (LOX IMVI melanoma) was over 100 µM, the TGI (MALME-3M melanoma) was over 100 µM and the TGI (MCF7 breast) was over 100 µM. For the same compound, the TGI (MDA-MB-435) was over 100 µM, the TGI (NCI-H460 lung) was over 100 µM and the TGI (NCI-H522 lung) was over 100 µM. For the same compound, the TGI (SNB-19 CNS) was over 100 µM, the TGI (SNB-75 CNS) was over 100 µM and the TGI (SR leukemia) was over 100 µM.
With `Nc1ccc2c(c1)N(C(=O)CCCC(=O)N1CC(CCl)c3ccc(N)cc31)CC2CCl` (stereo not drawn) the TGI (786-0 renal) was over 29.7 µM, the TGI (HT29 colon) was over 13.5 µM and the TGI (K-562 leukemia) was over 15.8 µM. For the same compound, the TGI (LOX IMVI melanoma) was 11.3 µM, the TGI (MALME-3M melanoma) was 0.451 µM and the TGI (MCF7 breast) was 12.9 µM. It also gave a TGI (MDA-MB-435) of 3.17 µM, a TGI (NCI-H460 lung) of over 50 µM and a TGI (NCI-H522 lung) of 0.286 µM. The TGI (SF-268 CNS) was 3.31 µM, the TGI (SNB-19 CNS) was 11.3 µM and the TGI (SNB-75 CNS) was 2.87 µM. It also gave a TGI (UO-31 renal) of 2.74 µM.
For `Nc1nc([O-])c([I+]c2ccccc2)c(=O)[nH]1`, the TGI (786-0 renal) was over 100 µM, the TGI (HT29 colon) was over 100 µM and the TGI (K-562 leukemia) was over 100 µM. For the same compound, the TGI (LOX IMVI melanoma) was over 100 µM, the TGI (MALME-3M melanoma) was over 100 µM and the TGI (MCF7 breast) was over 100 µM. The TGI (MDA-MB-435) was over 100 µM, the TGI (NCI-H460 lung) was over 100 µM and the TGI (NCI-H522 lung) was over 100 µM. For the same compound, the TGI (SF-268 CNS) was over 100 µM, the TGI (SNB-19 CNS) was over 100 µM and the TGI (SNB-75 CNS) was over 100 µM. For the same compound, the TGI (SR leukemia) was over 100 µM and the TGI (UO-31 renal) was over 100 µM.
With `Brc1nc2c3ccccc3ncn2c1Br` the TGI (786-0 renal) was over 100 µM, the TGI (HT29 colon) was over 100 µM and the TGI (K-562 leukemia) was over 100 µM. It also gave a TGI (LOX IMVI melanoma) of 77.4 µM, a TGI (MALME-3M melanoma) of 33.2 µM and a TGI (NCI-H460 lung) of over 100 µM. It also gave a TGI (NCI-H522 lung) of 53.6 µM, a TGI (SF-268 CNS) of over 100 µM and a TGI (SNB-19 CNS) of over 100 µM. It also gave a TGI (SNB-75 CNS) of 44.2 µM, a TGI (SR leukemia) of over 100 µM and a TGI (UACC-62 melanoma) of 49.2 µM. For the same compound, the TGI (UO-31 renal) was over 100 µM.
For `CCOC(=O)/C(=C\NC[C@@H](C)O)c1nc2ccccc2[nH]1`, the TGI (786-0 renal) was over 100 µM, the TGI (HT29 colon) was over 100 µM and the TGI (LOX IMVI melanoma) was over 100 µM. The TGI (MALME-3M melanoma) was over 100 µM, the TGI (MCF7 breast) was over 100 µM and the TGI (MDA-MB-435) was over 100 µM. It also gave a TGI (NCI-H460 lung) of over 100 µM, a TGI (NCI-H522 lung) of over 100 µM and a TGI (SF-268 CNS) of over 100 µM. The TGI (SNB-19 CNS) was over 100 µM, the TGI (SNB-75 CNS) was over 100 µM and the TGI (SR leukemia) was 84.3 µM. For the same compound, the TGI (UACC-62 melanoma) was over 100 µM and the TGI (UO-31 renal) was 4.02 µM.
`Cc1c2[nH]c3ccc(Br)cc3c2c(C)c2[nH]ccc(=O)c12` gave a TGI (786-0 renal) of 25.1 µM, a TGI (HT29 colon) of 30.2 µM and a TGI (K-562 leukemia) of 55.7 µM. The TGI (LOX IMVI melanoma) was 32.7 µM, the TGI (MALME-3M melanoma) was 28 µM and the TGI (NCI-H460 lung) was 23.1 µM. It also gave a TGI (NCI-H522 lung) of 28.5 µM, a TGI (SF-268 CNS) of 32.6 µM and a TGI (SNB-19 CNS) of 33.2 µM. For the same compound, the TGI (SNB-75 CNS) was over 100 µM, the TGI (SR leukemia) was 37.9 µM and the TGI (UO-31 renal) was 24.2 µM.
`COC(=O)CC(SCCO)SCCO` gave a TGI (786-0 renal) of over 100 µM, a TGI (HT29 colon) of over 100 µM and a TGI (K-562 leukemia) of over 100 µM. It also gave a TGI (LOX IMVI melanoma) of over 100 µM, a TGI (MALME-3M melanoma) of over 100 µM and a TGI (MDA-MB-435) of over 100 µM. It also gave a TGI (NCI-H460 lung) of over 100 µM, a TGI (NCI-H522 lung) of over 100 µM and a TGI (SF-268 CNS) of over 100 µM. For the same compound, the TGI (SNB-19 CNS) was over 100 µM, the TGI (SNB-75 CNS) was over 100 µM and the TGI (SR leukemia) was over 100 µM. The TGI (UACC-62 melanoma) was over 100 µM and the TGI (UO-31 renal) was over 100 µM.
